Measured values published in US9050346B2, “Bromodomain inhibitors” (AbbVie Inc., priority 2013, dated 2015).

Key:
[1] = target: T1, BRD4 (BDI_K57-E168) (Homo sapiens, UniProt O60885); assay: TR-FRET bromodomain binding assay, BRD4 first bromodomain; conditions: His-tagged BD1, 100 nM Alexa647 probe; Ki calculated from IC50; dilution protocol A-G
T1 construct: BD1: amino acids K57-E168; made in house
Method: (§1) A time-resolved fluorescence resonance energy transfer (TR-FRET) assay was used to determine the affinities of compounds of the Examples listed in Table 1 for each bromodomain of BRD4. His-tagged first (BD1: amino acids K57-E168) and second (BD2: amino acids E352-E168) bromodomains of BRD4 were expressed and purified. An Alexa647-labeled BET-inhibitor was used as the fluorescent probe in the assay.
(§2) Compound dilution series were prepared in DMSO via an approximately 3-fold serial dilution from one of the following: • Assay method A: 2.5 mM-800 nM • Assay method B: 2.5 mM-797 nM • Assay method C: 1250 μM-21 nM • Assay method D: 500 μM-8.5 nM • Assay method E: 0.47 mM to 7.8 nM • Assay method F: 250 μM-4.2 nM • Assay method G: 0.047 mM to 0.78 nM or 5-fold serial dilution from Assay Method A or Assay Method B.
(§3) For Assay methods A, C, D, and F: Compounds were then diluted 6:100 in assay buffer (20 mM Sodium Phosphate, pH 6.0, 50 mM NaCl, 1 mM Ethylenediaminetetraacetic acid, 0.01% Triton X-100, 1 mM DL-Dithiothreitol) to yield 3× working solutions. Six microliters (μL) of the working solution was then transferred to white, low-volume assay plates (Costar #3673). A 1.5× assay mixture containing His-tagged bromodomain, Europium-conjugated anti-His antibody (Invitrogen PV5596) and the Alexa-647-conjugated probe molecule was also prepared. Twelve μL of this solution were added to the assay plate to reach a final volume of 18 μL.
(§4) For Assay methods B, E, and G: Compound dilutions were added directly into white, low-volume assay plates (Perkin Elmer Proxiplate 384 Plus#6008280) using a Labcyte Echo in conjunction with Labcyte Access and Thermo Multidrop CombinL robotics. Compounds were then suspended in eight microliters (μL) of assay buffer (20 mM Sodium Phosphate, pH 6.0, 50 mM NaCl, 1 mM Ethylenediaminetetraacetic acid disodium salt dihydrate, 0.01% Triton X-100, 1 mM DL-Dithiothreitol) containing His-tagged bromodomain, Europium-conjugated anti-His antibody (Invitrogen PV5596) and Alexa-647-conjugated probe.
(§5) The final concentration of 1× assay mixture for assay methods A, B, C, D, E, F, and G contains 2% DMSO, 8 nM His-tagged bromodomain, 1 nM Europium-conjugated anti-His-tag antibody and 100 nM or 30 nM probe (for BDI or BDII, respectively) and compound concentration in the range of: 50 μM-16 nM for method A, 49.02 μM-15.63 nM for method B, 25 μM-423 pM for method C, 10 μM-169 pM for method D, 9.19 μM-150 pM for method E, 5 μM-85 pM for method F, and 0.92 μM-15 pM for method G.
(§6) After a one-hour equilibration at room temperature, TR-FRET ratios were determined using an Envision multilabel plate reader (Ex 340, Em 495/520).
(§7) TR-FRET data were normalized to the means of 24 no-compound controls (“high”) and 8 controls containing 1 μM un-labeled probe (“low”). Percent inhibition was plotted as a function of compound concentration and the data were fit with the 4 parameter logistic equation to obtain IC50s Inhibition constants (Ki) were calculated from the IC50s, probe Kd and probe concentration. Typical Z′ values were between 0.65 and 0.75. The minimum significant ratio was determined to evaluate assay reproducibility (Eastwood et al., (2006) J Biomol Screen, 11: 253-261). The MSR was determined to be 2.03 for BDI and 1.93 for BDII, and a moving MSR (last six run MSR overtime) for both BDI and BDII was typically <3.

[2] = target: T2, BRD4 (BDII_E352-M457) (Homo sapiens, UniProt O60885); assay: TR-FRET bromodomain binding assay, BRD4 second bromodomain
T2 construct: made in house
Method: as §1, §2, §3, §4, §5, §6, §7

| Structure (SMILES) | Ki [1] [nM] | Ki [2] [nM] |
| --- | --- | --- |
| Cc1[nH]c(-c2ccccc2Oc2ccccc2)c2cc(-c3nc(-c4ccc(N(C)C)cc4)no3)[nH]c(=O)c12 [Example 62, 6-(3-(4-(dimethylamino)phenyl)-1,2,4-oxadiazol-5-yl)-3-methyl-1-(2-phenoxyphenyl)-2H-pyrrolo[3,4-c]pyridin-4(5H)-one] | > 2380 | > 4080 |
| Cc1[nH]c(-c2ccccc2Oc2ccccc2)c2cc[nH]c(=O)c12 [Example 14, 3-methyl-1-(2-phenoxyphenyl)-2H-pyrrolo[3,4-c]pyridin-4(5H)-one] | 31.4 | 67.6 |
| Cc1[nH]c(-c2ccccc2Oc2ccccc2)c2cc(-c3nc(-c4ccccc4)no3)[nH]c(=O)c12 [Example 46, 3-methyl-1-(2-phenoxyphenyl)-6-(3-phenyl-1,2,4-oxadiazol-5-yl)-2H-pyrrolo[3,4-c]pyridin-4(5H)-one] | 1250 | 1220 |
| Cc1[nH]c(-c2cc(S(C)(=O)=O)ccc2Oc2ccc(F)cc2F)c2cc(C(=O)O)[nH]c(=O)c12 [Example 40, 1-[2-(2,4-difluorophenoxy)-5-(methylsulfonyl)phenyl]-3-methyl-4-oxo-4,5-dihydro-2H-pyrrolo[3,4-c]pyridine-6-carboxylic acid] | 358 | 1720 |
| Cc1[nH]c(-c2cc(S(C)(=O)=O)ccc2F)c2c1C(=O)NCC2 [Example 99, 1-[2-fluoro-5-(methylsulfonyl)phenyl]-3-methyl-2,5,6,7-tetrahydro-4H-pyrrolo[3,4-c]pyridin-4-one] | 1620 | > 4440 |
| Cc1[nH]c(-c2cc(CN3CCN(C)CC3)ccc2Oc2ccc(F)cc2F)c2c1C(=O)NCC2 [Example 102, 1-{2-(2,4-difluorophenoxy)-5-[(4-methylpiperazin-1-yl)methyl]phenyl}-3-methyl-2,5,6,7-tetrahydro-4H-pyrrolo[3,4-c]pyridin-4-one] | 1560 | 3120 |
| Cc1[nH]c(-c2cc(N)ccc2Oc2ccccc2)c2nc[nH]c(=O)c12 [Example 90, 7-(5-amino-2-phenoxyphenyl)-5-methyl-3,6-dihydro-4H-pyrrolo[3,4-d]pyrimidin-4-one] | 108 | 791 |
| Cc1[nH]c(-c2ccccc2Oc2ccccc2)c2cc(C(=O)N(C)C)[nH]c(=O)c12 [Example 41, N,N,3-trimethyl-4-oxo-1-(2-phenoxyphenyl)-4,5-dihydro-2H-pyrrolo[3,4-c]pyridine-6-carboxamide] | 141 | 944 |
| Cc1[nH]c(-c2ccccc2)c2c1C(=O)NCC2 [Example 100, 3-methyl-1-phenyl-2,5,6,7-tetrahydro-4H-pyrrolo[3,4-c]pyridin-4-one] | 2250 | 2920 |
| Cc1[nH]c(-c2cc(NS(C)(=O)=O)ccc2Oc2ccccc2)c2cn[nH]c(=O)c12 [Example 73, N-[3-(7-methyl-1-oxo-2,6-dihydro-1H-pyrrolo[3,4-d]pyridazin-5-yl)-4-phenoxyphenyl]methanesulfonamide] | 1.49 | 8.5 |
| Cc1[nH]c(-c2ccccc2Oc2ccccc2)c2c1C(=O)NCC2 [Example 92, 3-methyl-1-(2-phenoxyphenyl)-2,5,6,7-tetrahydro-4H-pyrrolo[3,4-c]pyridin-4-one] | 14.1 | 47 |
| Cc1[nH]c(-c2ccccc2Oc2ccccc2)c2cn[nH]c(=O)c12 [Example 72, 7-methyl-5-(2-phenoxyphenyl)-2,6-dihydro-1H-pyrrolo[3,4-d]pyridazin-1-one] | 7.63 | 25.8 |
| Cc1[nH]c(-c2ccccc2Oc2ccccc2)c2nc(C(=O)O)[nH]c(=O)c12 [Example 86, 5-methyl-4-oxo-7-(2-phenoxyphenyl)-4,6-dihydro-3H-pyrrolo[3,4-d]pyrimidine-2-carboxylic acid] | 1370 | 12300 |
| Cc1[nH]c(-c2cc(NS(C)(=O)=O)ccc2Oc2ccccc2)c2nc[nH]c(=O)c12 [Example 91, N-[3-(5-methyl-4-oxo-4,6-dihydro-3H-pyrrolo[3,4-d]pyrimidin-7-yl)-4-phenoxyphenyl]methanesulfonamide] | 22.6 | 117 |
| Cc1[nH]c(-c2ccccc2Oc2ccccc2)c2cc(C(=O)O)[nH]c(=O)c12 [Example 12, 3-methyl-4-oxo-1-(2-phenoxyphenyl)-4,5-dihydro-2H-pyrrolo[3,4-c]pyridine-6-carboxylic acid] | 82.6 | 546 |
| Cc1[nH]c(-c2cc(NS(C)(=O)=O)ccc2Oc2ccc(F)cc2F)c2c1C(=O)NCC2 [Example 93, N-[4-(2,4-difluorophenoxy)-3-(3-methyl-4-oxo-4,5,6,7-tetrahydro-2H-pyrrolo[3,4-c]pyridin-1-yl)phenyl]methanesulfonamide] | 14 | 138 |
| Cc1[nH]c(-c2ccccc2Oc2ccc(F)cc2F)c2cc(C(=O)O)[nH]c(=O)c12 [Example 22, 1-[2-(2,4-difluorophenoxy)phenyl]-3-methyl-4-oxo-4,5-dihydro-2H-pyrrolo[3,4-c]pyridine-6-carboxylic acid] | 225 | 2790 |
| Cc1ccc(S(=O)(=O)Nc2ccccc2-c2[nH]c(C)c3c(=O)[nH]ncc23)cc1 [Example 77, 4-methyl-N-[2-(7-methyl-1-oxo-2,6-dihydro-1H-pyrrolo[3,4-d]pyridazin-5-yl)phenyl]benzenesulfonamide] | > 13000 | > 22200 |
| CCCc1noc(-c2cc3c(-c4ccccc4Oc4ccccc4)[nH]c(C)c3c(=O)[nH]2)n1 [Example 47, 3-methyl-1-(2-phenoxyphenyl)-6-(3-propyl-1,2,4-oxadiazol-5-yl)-2H-pyrrolo[3,4-c]pyridin-4(5H)-one] | 519 | 2520 |
| Cc1[nH]c(-c2cc(NS(C)(=O)=O)ccc2Oc2ccccc2)c2c1C(=O)NCC2 [Example 95, N-[3-(3-methyl-4-oxo-4,5,6,7-tetrahydro-2H-pyrrolo[3,4-c]pyridin-1-yl)-4-phenoxyphenyl]methanesulfonamide] | 3.67 | 20.4 |
| CCOC(=O)c1cc2c(-c3cc(Cl)ccc3Oc3ccc(F)cc3F)[nH]c(C)c2c(=O)[nH]1 [Example 24, ethyl 1-[5-chloro-2-(2,4-difluorophenoxy)phenyl]-3-methyl-4-oxo-4,5-dihydro-2H-pyrrolo[3,4-c]pyridine-6-carboxylate] | 92.2 | 2750 |
| CCOC(=O)c1cc2c(-c3cc([N+](=O)[O-])ccc3Oc3ccc(F)cc3F)[nH]c(C)c2c(=O)[nH]1 [Example 33, ethyl 1-[2-(2,4-difluorophenoxy)-5-nitrophenyl]-3-methyl-4-oxo-4,5-dihydro-2H-pyrrolo[3,4-c]pyridine-6-carboxylate] | 499 | 759 |
